From patent publication EP4818187A1, “COMPOUND AND USE THEREOF” (Ganzhou Hemay Pharmaceutical, Co., Ltd, priority 2023, dated 2025)

Columns and labels:
[1] = test system: Fadu (human pharyngeal squamous cell carcinoma); assay: In vitro inhibitory effect against human tumor cells (MTT); format: cell-based; conditions: 72 h, 3 days
Protocol: (§1) Cells were cultured with 5% CO2 at 37°C and saturated humidity until they reached a logarithmic growth phase (usually adherent cells were nearly fully confluent). After removing adherent cells by trypsin/EDTA digestion, the cells were collected for subsequent experiments.
(§2) The cells were inoculated into a 96-well cell culture plate (hereinafter referred to as the 96-well plate) based on the cell count shown in Table 2, cultured overnight to achieve cell adherence, and then, after different concentrations of the test compound were added, further cultured for a total of 3 days. Finally, the total cell protein in the assay wells was assayed by SRB, or the cell viability was assessed by MTT:
(§3) 2.2 Assaying cell viability by MTT: the modification is based on the method in the literature (J. Carmichael, W. DeGraff, A. Gazdar et al., Evaluation of a tetrazolium-based semiautomated colorimetric assay: assessment of chemosensitivity testing. Cancer Research. 1987, 47: 936-942). Specific method: For well-adherent cells: the medium was pipetted out, 100 µL of a basal medium containing 0.5 mg/mL MTT (medium free of fetal bovine serum (FBS) and other additives) was added to each well, and culture was continued for additional 3 h. The MTT-containing basal medium was pipetted out, and 100 µL of DMSO was added to each well to dissolve formazan, followed by assay at a wavelength of 490 nm.
(§4) For poorly-adherent cells: MTT solution was directly added to a concentration of 0.5 mg/mL, culture was continued for additional 3 h, and an equal volume of triple solvent was added to the system to dissolve formazan, followed by assay at a wavelength of 570 nm.
(§5) 2.3: 1-2 mg of β-glucuronidase was weighed, and dissolved in PBS to prepare 2 mg/mL stock solution. Prior to use, the stock solution was diluted with a complete medium to prepare 12.5 µg/mL enzyme working solution. For assay wells requiring the enzyme, 80 µL of the enzyme working solution was added, with the β-glucuronidase at a concentration of 1 µg/well; and for assay wells not requiring the enzyme, 80 µL of the complete medium was added.
(§6) 1-3 mg of the test compound was weighed, and dissolved in DMSO to prepare 20 mM stock solution. The stock solution was diluted in a 3-fold gradient with DMSO, then diluted 100-fold with RPMI1640 basal medium to obtain 10× working solutions, with a total of 8 concentrations. 20 µL of the 10× working solutions were add to the assay wells, with the final volume of each well of 200 µL, and with the DMSO at a concentration of 0.1%.
(§7) 2.4 Calculation of inhibitory activity of compound: the experiment includes a compound test group, a compound-free positive solvent control group (PC), and a negative solvent control group (NC) without cells and the compound. Inhibition rate = [1−(testvalue−NCmean)/(PCmean−NCmean)] × 100% [formula]
(§8) The mean and SD of the inhibition rate were obtained from replicate assay wells. A curve was plotted with the compound concentrations distributed in a logarithmic form as the abscissa and with the mean inhibition rates as the ordinate, and was fitted with a 4-parameter logistic equation. The compound concentration corresponding to 50% inhibition rate on the curve is the IC50 value. Table 2: Culture medium formulation and cell inoculation concentration for human tumor cell lines

[2] = test system: HCT116 (human colorectal cancer); assay: as above; format: cell-based; conditions: HCT-116, 72 h, 3 days
Protocol: as §1, §2, §3, §4, §5, §6, §7, §8

[3] = test system: NCI-H1975 (human non-small cell lung cancer); assay: as above; format: cell-based; conditions: NCI-H1975, 72 h, 3 days
Protocol: as §1, §2, §3, §4, §5, §6, §7, §8

[4] = test system: SK-OV-3 (human ovarian cancer); assay: as above; format: cell-based; conditions: SK-OV-3, 72 h, SK-OV-3, MTT, 3 days
Protocol: as §1, §2, §3, §4, §5, §6, §7, §8

[5] = test system: 22RV1 (human prostate cancer); assay: In vitro inhibitory effect against human tumor cells (SRB); format: cell-based; conditions: 22Rv1, 72 h, 22RV1, SRB, 3 days
Protocol: as §1, §2
(§9) 2.1 Assaying total cell protein by SRB: the modification is based on the method in the literature (V. Vichai and K. Kirtikara. Sulforhodamine B colorimetric assay for cytotoxicity screening. Nature Protocols. 2006, 1: 1112-1116). Specific method: the culture medium was pipetted out from the wells, the cells were fixed with 10% trichloroacetic acid for more than 1 h, and trichloroacetic acid was removed; the cells were washed with H2O, and stained with 0.4% SRB for 15-30 min; after excess SRB was removed, the cells were washed with 1% acetic acid; 100 µl of 10 mM tris(trihydroxymethylaminomethane) was added to dissolve the protein-bound SRB, followed by assay at a wavelength of 570 nm.
as §5, §6, §7, §8

[6] = test system: A375 (human malignant melanoma); assay: as above; format: cell-based; conditions: A-375, 72 h, 3 days
Protocol: as §1, §2, §9, §5, §6, §7, §8

[7] = test system: HepG2 (human liver cancer cell); assay: as above; format: cell-based; conditions: HepG2, 72 h, 3 days
Protocol: as §1, §2, §9, §5, §6, §7, §8

[8] = test system: BxPC-3 (human pancreatic cancer in situ); assay: In vitro inhibitory effect against human tumor cells (MTT or SRB); format: cell-based; conditions: BXPC-3, 72 h, BxPC-3, test method printed MTT (head: SRB), 3 days
Protocol: as §1, §2, §9, §3, §4, §5, §6, §7, §8

[9] = test system: human ovarian cancer SK-OV-3; assay: Biological Example 5: in vivo xenograft model of human ovarian cancer SK-OV-3; design: species or system Balb/c-nu nude mice; conditions: SK-OV-3 xenograft, nude mice, 0.8 mg/kg i.v. qw×3
[10] = test system: human non-small cell lung cancer NCI-H1975; assay: Biological Example 7: in vivo xenograft model of human non-small cell lung cancer NCI-H1975; design: species or system Balb/c-nu nude mice; conditions: nude mice; for Final body weight change (%) / Maximum body weight change (%) / Relative volume RTV (x±S.D.) / T/C (%) / Tumor inhibition rate (%) / Tumor weight (g, x±S.D.): 0.8 mg/kg i.v. qw×3; for Body weight (g, x±S.D.) End: 0.8 mg/kg i.v. qw×3, End; for Body weight (g, x±S.D.) Start: 0.8 mg/kg i.v. qw×3, Start
[11] = test system: human non-small cell lung cancer NCI-H1975; assay: Biological Example 10: in vivo xenograft model of human non-small cell lung cancer NCI-H1975; design: species or system Balb/c-nu nude mice; conditions: nude mice; for Final body weight change (%) / Maximum body weight change (%) / Relative volume RTV (x±S.D.) / T/C (%) / Tumor inhibition rate (%) / Tumor weight (g, x±S.D.): 0.4 mg/kg i.v. qw×2; for Body weight (g, x±S.D.) End 24d: 0.4 mg/kg i.v. qw×2, End 24d; for Body weight (g, x±S.D.) Start: 0.4 mg/kg i.v. qw×2, Start
[12] = With addition of βGU (1 µg/well)

Row | Structure (SMILES) | IC50 [1, 12] [nM] | IC50 ([1]; βGU-free) [nM] | IC50 [2, 12] [nM] | IC50 ([2]; βGU-free) [nM] | IC50 [3, 12] [nM] | IC50 ([3]; βGU-free) [nM] | IC50 [4, 12] [nM] | IC50 ([4]; βGU-free) [nM] | IC50 [5, 12] [nM] | IC50 ([5]; βGU-free) [nM] | IC50 [6, 12] [nM] | IC50 ([6]; βGU-free) [nM] | IC50 [7, 12] [nM] | IC50 ([7]; βGU-free) [nM] | IC50 [8, 12] [nM] | IC50 ([8]; βGU-free) [nM] | Final body weight change (%) [9] [%] | Maximum body weight change (%) [9] | Relative volume RTV (x±S.D.) [9] | T/C (%) [9] [%] | further results
1 | CC[C@H](C)[C@@H]([C@@H](CC(=O)N1CCC[C@H]1[C@H](OC)[C@@H](C)C(=O)N[C@H](C)[C@@H](O)c1ccccc1)OC)N(C)C(=O)[C@@H](NC(=O)[C@H](C(C)C)[N+](C)(C)Cc1ccc(O[C@@H]2O[C@H](C(=O)[O-])[C@@H](O)[C@H](O)[C@H]2O)cc1OCc1cn(CCCOCC(=O)Nc2ccc(-c3ccc(/N=N/c4ccc5c(S(=O)(=O)[O-])cc(S(=O)(=O)[O-])c(N)c5c4O)c(C)c3)cc2C)nn1)C(C)C.[Na+].[Na+] [Example compound 10] | 0.64 | 14 | 3.4 | 87 | 1.9 | 50 | 2.7 | 74 | 4.4 | 94 | 1.4 | 33 | 4.1 | 93 | 0.71 | 29 | 4.3 | 4.4, d18% | 0.37±0.73 | 3.2 | Tumor inhibition rate (%) [9]: 97.9%; Tumor weight (g, x±S.D.) [9]: 0.035 ± 0.077 g; Body weight (g, x±S.D.) End [9]: 24.7 ± 0.9 g; Body weight (g, x±S.D.) Start [9]: 23.7 ± 1.1 g; Final body weight change (%) [10]: 10.2%; Maximum body weight change (%) [10]: 10.2, d21%; Relative volume RTV (x±S.D.) [10]: 0.66±0.23; T/C (%) [10]: 4.6%; Tumor inhibition rate (%) [10]: 97.7%; Tumor weight (g, x±S.D.) [10]: 0.041 ± 0.022 g; Body weight (g, x±S.D.) End [10]: 26.0 ± 1.0 g; Body weight (g, x±S.D.) Start [10]: 23.7 ± 1.3 g; Final body weight change (%) [11]: 4.6%; Maximum body weight change (%) [11]: 4.6, d28%; Relative volume RTV (x±S.D.) [11]: 0.26±0.02; T/C (%) [11]: 5.2%; Tumor inhibition rate (%) [11]: 95.7%; Tumor weight (g, x±S.D.) [11]: 0.047 ± 0.020 g; Body weight (g, x±S.D.) End 24d [11]: 22.9 ± 0.8 g; Body weight (g, x±S.D.) Start [11]: 21.9 ± 1.3 g
2 | CC[C@H](C)[C@@H]([C@@H](CC(=O)N1CCC[C@H]1[C@H](OC)[C@@H](C)C(=O)N[C@H](C)[C@@H](O)c1ccccc1)OC)N(C)C(=O)[C@@H](NC(=O)[C@H](C(C)C)[N+](C)(CC)Cc1ccc(O[C@@H]2O[C@H](C(=O)[O-])[C@@H](O)[C@H](O)[C@H]2O)cc1OCc1cn(CCCCCC(=O)Nc2ccc(-c3ccc(/N=N/c4ccc5c(S(=O)(=O)[O-])cc(S(=O)(=O)[O-])c(N)c5c4O)c(C)c3)cc2C)nn1)C(C)C.[Na+].[Na+] (some centres unmarked) [Example compound 12] | 0.21 | 36 | 1.6 | 84 | 1.2 | 74 | 1.1 | 37 | 2.5 | 77 | 1 | 50 | 3 | 106 | 0.53 | 28 | 4.4 | 4.4, d21% | 0.07±0.04 | 0.6 | Tumor inhibition rate (%) [9]: 99.7%; Tumor weight (g, x±S.D.) [9]: 0.005 ± 0.001 g; Body weight (g, x±S.D.) End [9]: 25.1 ± 1.4 g; Body weight (g, x±S.D.) Start [9]: 24.1 ± 1.2 g; Final body weight change (%) [10]: 5.8%; Maximum body weight change (%) [10]: 5.8, d21%; Relative volume RTV (x±S.D.) [10]: 0.46±0.35; T/C (%) [10]: 3.2%; Tumor inhibition rate (%) [10]: 97.8%; Tumor weight (g, x±S.D.) [10]: 0.039 ± 0.039 g; Body weight (g, x±S.D.) End [10]: 25.6 ± 2.4 g; Body weight (g, x±S.D.) Start [10]: 24.1 ± 1.6 g; Final body weight change (%) [11]: 5.7%; Maximum body weight change (%) [11]: 5.7, d28%; Relative volume RTV (x±S.D.) [11]: 0.44±0.06; T/C (%) [11]: 8.8%; Tumor inhibition rate (%) [11]: 92.1%; Tumor weight (g, x±S.D.) [11]: 0.086 ± 0.009 g; Body weight (g, x±S.D.) End 24d [11]: 23.1 ± 0.7 g; Body weight (g, x±S.D.) Start [11]: 21.8 ± 0.6 g
